The results in this text go back to US8198284B2, “Treatment of neurodegenerative disorders with thiourea compounds” (National Health Research Institutes, priority 2008, dated 2012).

Holding throughout (format): cell-based
The subject of one assay is IL-6. Briefly: Anti-inflammatory activity: LPS-induced IL-6 secretion (ELISA). As for the experimental part:
(§1) Compounds were evaluated for their efficacy in suppressing microglial immune activation by measuring their potency against LPS-induced expression of iNOS and COX-2 and IL-6 secretion. Microglia and Raw 264.7 cells (a microglia-like cell line) were pretreated with a test compound at various doses for 1 hr followed by 24 hr treatment of LPS (10 ng/ml). Cell lysates were subjected to Western blotting for iNOS and COX-2 evaluation. IL-6 secretion was measured from resulting culture medium by ELISA.
(In general: ELISA stands for enzyme-linked immunosorbent assay.)

Assay [1] has as its system Hippocampal organotypic cultures. Briefly: Neuro-protection against LPS toxicity in hippocampal organotypic cultures. Particulars: pre-treatment, then LPS 10 ng/mL for 24 hr; Western blotting. As for the experimental part:
Compounds were evaluated for their efficacy in suppressing microglia-mediated neurotoxicity. Hippocampal organotypic cultures were established to serve as an ex vivo model for evaluation of hippocampal functions. Pre-treatment of the cultures with a test compound was followed by addition of LPS (10 ng/mL) for 24 hr. Hippocampal tissues were harvested and subjected to Western blotting for measuring synaptophysin and post synaptic density protein (PSD)95 levels, the indications for neuronal synatic functions.

Another assay has as its system COX-2. Briefly: Anti-inflammatory activity: LPS-induced COX-2 expression (Western blotting). As for the experimental part:
as §1
(In general: In western blotting, separated proteins are transferred to a membrane and probed.)

For a further assay, the system named is Microglia. The assay is described as follows: Enhancement of microglial Aβ clearance and phagocytosis in vitro. The conditions noted are these: n=6, p<0.001. The protocol:
Compounds were evaluated for their efficacy in enhancing microglial phagocytosis of Aβ (or Aβ clearance). […] Lipopolysaccharide (LPS) at 10 ng/mL was added as a positive control, which is known to increase Aβ uptake. The culture medium was subjected to Western blotting for evaluating residual Aβ left in the medium. The mean values of fluorescent intensity measured by flow cytometer were compared between cells pretreated with the test compound and the ones in non-treated controls.

The subject of the next assay is iNOS. The assay is described as follows: Anti-inflammatory activity: LPS-induced iNOS expression (Western blotting). The protocol:
as §1

Where [2] appears, read: dose dependent, β-actin unchanged.

In general, IC50 refers to the point on the concentration scale where inhibition reaches its midpoint. In the case of `NC(=S)Nc1cccc(OCCCCCNC(=S)Nc2cccc3ccccc23)c1` [Compound 1, 1-naphthalen-1-yl-3-[5-(3-thioureido-phenoxy)-pentyl]-thiourea], the IC50 came to 20 µM with IL-6 (1 hr pretreatment, then LPS 10 ng/ml for 24 hr, secretion by microglia, read-out: Effective dose to show at least 50% suppression (IC50) for IL-6); 50 µM in the assay with COX-2 (Mus musculus, RAW264.7, 1 hr pretreatment, then LPS 10 ng/ml for 24 hr, microglia and Raw 264.7 cells, read-out: Effective dose to show at least 50% suppression (IC50) for COX-2); 1 µM in the assay on iNOS (Mus musculus, RAW264.7, 1 hr pretreatment, then LPS 10 ng/ml for 24 hr, microglia and Raw 264.7 cells, read-out: Effective dose to show at least 50% suppression (IC50) for iNOS). Also, the “LPS-induced IL-6 secretion by microglia” value with IL-6 (dose dependent) is given as “inhibited”. Moreover, in assay [1], the “LPS-induced reduction of PSD95 level” value is listed as “prevented LPS-induced reduction”. In assay [1], the “LPS-induced reduction of synaptophysin level” value is listed as “prevented LPS-induced reduction”. Further, the “LPS-induced COX-2 expression” value in the assay with COX-2 (setting [2]) was “significant suppression”. The “increase of Aβ uptake as compared to the controls” value is “approximately 29%” with Microglia (compound at 10 μM), about 44% in the assay on Microglia (compound at 20 μM) and about 128% with Microglia (compound at 50 μM). In the assay with iNOS (setting [2]), the “LPS-induced iNOS expression” value is “significant suppression”.
